The values below are quoted from earlier work in the CATMoS acute toxicity set (Mansouri et al. 2021).

Values joined by “and” are separate entries in the source; they are usually repeats but may differ in a detail not shown here. Equal values may be shown once.

A short description of the data set: rat acute oral toxicity. To be noted: in vivo.
As a reminder, the LD50 is the dose expected to kill half of the subjects tested. As to `O=C(c1ccccc1)N1CCN=C1Nc1c(Cl)cccc1Cl`, the median lethal dose (LD50) was 68.1 mg/kg.
For the compound `C=CN(CC)N=O`, the median lethal dose (LD50) is 88 mg/kg.
For the compound `C=CCOC(=O)CC(C)C`, the 50% lethal dose (LD50) is 230 mg/kg.
With `Cc1nc(NCc2ccccc2)c2cc[nH]c2n1`, the LD50 is 80 mg/kg.
For the compound `CN1CCCCC1CCN1c2ccccc2Sc2ccc(Br)cc21` (centres undefined), the LD50 is 900 mg/kg.
For the compound `CCCCn1c2ccccc2c2cc(N)ccc21`, the LD50 is 946 mg/kg.
On to `ClCCOCCOCCOCCCl`, for which the LD50 was 180 mg/kg.
Take `CCCCS(=O)(=O)NC1CCCCC1`: the LD50 is 2820 mg/kg.
`CC(C(=O)COC(=O)c1ccncc1)c1ccc(-c2ccccc2F)cc1` (centres undefined): the median lethal dose (LD50) was 1170 mg/kg.
As for `C=C(C)C(=O)OCC(=O)OCC`, the LD50 was 7880 mg/kg.
For `CC(C)(C)c1ccccc1`, the median lethal dose (LD50) is 3040 mg/kg.
As to `CCN(CCCCCCOC(=O)c1ccc(OC)c(OC)c1)C1CCc2cc(OC)ccc2C1` (centres undefined), the LD50 is 2830 mg/kg.
Take `COP(=O)(Oc1ccccc1)OC(Br)C(Cl)(Cl)Br` (centres undefined): the median lethal dose (LD50) is 500 mg/kg.
Take `CN(C)CC/C=C1/c2ccccc2CSc2ccccc21`: the median lethal dose (LD50) was 260 mg/kg.
Turning to `CCCCC(CC)COC(C)=O` (centres undefined), the LD50 is 3000 mg/kg.
For the compound `C[N+]1(CCC(C2=CCCCC2)c2ccccc2)CCCCC1` (centres undefined), the 50% lethal dose (LD50) was 1700 mg/kg.
Take `CNC(=O)N1C(=O)CN=C(c2ccccc2)c2cc([N+](=O)[O-])ccc21`: the LD50 is 2280 mg/kg.
Consider `CC1=C(C(C)C)CC=CC1`, for which the 50% lethal dose (LD50) was 4270 mg/kg.
As for `Cl[C@H]1[C@H](Cl)[C@@H](Cl)[C@H](Cl)[C@@H](Cl)[C@@H]1Cl` (racemic), the LD50 is 6000 mg/kg.
Take `CC/C=C\CC=O`: the LD50 is 1560 mg/kg.
Consider `CCCSP(=O)(OCC)Oc1ccc(Cl)cc1Cl` (centres undefined), for which the median lethal dose (LD50) is 320 mg/kg.
In the case of `O=Cc1ccc(O)cc1`, the LD50 was 2250 mg/kg.
As for `COc1cc2c3cc1Oc1cc(ccc1O)C[C@@H]1c4c(cc(OC)c(O)c4Oc4ccc(cc4)C[C@@H]3N(C)CC2)CC[N+]1(C)C`, the LD50 is 28 mg/kg.
As for `CCN(CC)CCOC(=O)C(O)(c1ccccc1)c1ccccc1`, the LD50 was 184 mg/kg.
With `CN(C)C(=S)N/N=C/c1ccc([N+](=O)[O-])o1`, the median lethal dose (LD50) was 750 mg/kg.
Take `CN(C)N=Nc1ccc(C(=O)O)cc1`: the 50% lethal dose (LD50) was 320 mg/kg.
Take `COc1cc(N)c(Cl)cc1C(=O)NC1CCNCC1`: the LD50 was 2550 mg/kg.
For the compound `CCOc1ccc(C=O)cc1`, the median lethal dose (LD50) was 2100 mg/kg.
Regarding `COCCC#N`, the median lethal dose (LD50) is 4390 mg/kg.
For `CCC1CN2CCC1CC2C(O)c1ccnc2ccc(OC)cc12` (centres undefined), the median lethal dose (LD50) is 369 mg/kg.
As for `CC(O)C(=O)O` (centres undefined), the median lethal dose (LD50) was 2100 mg/kg.
Take `CC(O)CN(C)C` (centres undefined): the LD50 is 1740 mg/kg.
For the compound `CCOC1c2ccccc2C(=O)N(C)c2ccccc21` (centres undefined), the LD50 was 4000 mg/kg.
Regarding `COc1ccccc1S`, the LD50 was 1740 mg/kg.
Take `CC(C)(CNc1ccc(N=O)cc1)[N+](=O)[O-]`: the median lethal dose (LD50) is 2730 mg/kg.
For the compound `CCCSP(=S)(OC)SCCC`, the LD50 was 16 mg/kg.
Consider `CC[C@@H](CO)NC(=O)[C@@H]1C=C2c3cccc4[nH]cc(c34)C[C@H]2N(C)C1`, for which the LD50 is 93 mg/kg.
For `CCOP(=S)(OCC)SCS(=O)(=O)CC`, the LD50 was 1.2 mg/kg.
As to `CCCCCCCCc1ccccc1O`, the median lethal dose (LD50) was 2800 mg/kg.
For the compound `CCC1CCCC(CC)C1N` (centres undefined), the LD50 was 157 mg/kg.
Take `CNC(=O)Oc1ccc2c(c1)[C@]1(C)CCN(C)[C@@H]1N2C`: the LD50 was 4.5 mg/kg.
For `O=C(O)Cn1c(=O)n(Cc2ccc(Br)cc2F)c(=O)c2ccc(F)cc21`, the median lethal dose (LD50) was 2140 mg/kg.
Consider `C1CCCC1`, for which the median lethal dose (LD50) is 11400 mg/kg.
For the compound `CN(C)c1ccc(C(=C2C=CC(=[N+](C)C)C=C2)c2ccc(N(C)C)cc2)cc1`, the LD50 is 420 mg/kg.
Regarding `CC[C@H]1[C@@H]2C[C@H]3[C@@H]4N(C)c5ccccc5[C@]45C[C@@H](C2[C@H]5O)N3[C@@H]1O` (some centres undefined), the 50% lethal dose (LD50) was 360 mg/kg.
As for `O=S(=O)(O)C(F)(F)C(F)(F)C(F)(F)C(F)(F)C(F)(F)C(F)(F)C(F)(F)C(F)(F)F`, the LD50 was 251 mg/kg and 154 mg/kg.
In the case of `Oc1cc(O)cc(Sc2cc(O)cc(O)c2)c1`, the median lethal dose (LD50) is 4290 mg/kg.
With `CCCCC(CC)CO[Si](O)(O)O` (centres undefined), the median lethal dose (LD50) was 19700 mg/kg.
As for `CN(C)CCCCCNc1c2ccccc2nc2cccc([N+](=O)[O-])c12`, the median lethal dose (LD50) was 63.3 mg/kg.
For the compound `CCCOC(=O)CC(SP(=O)(OC)OC)C(=O)OCCC` (centres undefined), the median lethal dose (LD50) is 360 mg/kg.
With `CCCCN(CCCCO)N=O`, the median lethal dose (LD50) is 1800 mg/kg.
With `Oc1c(I)cc(I)c(O)c1I`, the LD50 is 8200 mg/kg.
As to `C[N+](C)(N)CCCl`, the LD50 is 3400 mg/kg.
For the compound `Cc1cc2[nH]c(C(F)(F)F)nc2cc1Br`, the LD50 was 77 mg/kg.
As to `O=S(=O)(O)c1ccc2c(Cc3cccc4cc(S(=O)(=O)O)ccc34)cccc2c1`, the 50% lethal dose (LD50) is 3800 mg/kg.
As for `CCCCCCCCc1ccc(C)cc1O`, the median lethal dose (LD50) is 4000 mg/kg.
Take `CC(=O)Oc1ccc(Oc2c(I)cc(C(=O)O)cc2I)cc1I`: the 50% lethal dose (LD50) is 4600 mg/kg.
As to `O=[N+]([O-])c1ccc(NS(=O)(=O)c2ccc(Cl)c(C(F)(F)F)c2)c(Cl)c1`, the 50% lethal dose (LD50) was 132 mg/kg.
Consider `CCCCCCNC(=O)n1cc(F)c(=O)[nH]c1=O`, for which the 50% lethal dose (LD50) is 268 mg/kg.
